In ChEMBL document CHEMBL5725974, “ASK1 inhibitor compounds and uses thereof” (2018):

Molecular target: T1, Mitogen-activated protein kinase kinase kinase 5 (Homo sapiens, UniProt Q99683)
T1 sequence (Q99683 whole entry): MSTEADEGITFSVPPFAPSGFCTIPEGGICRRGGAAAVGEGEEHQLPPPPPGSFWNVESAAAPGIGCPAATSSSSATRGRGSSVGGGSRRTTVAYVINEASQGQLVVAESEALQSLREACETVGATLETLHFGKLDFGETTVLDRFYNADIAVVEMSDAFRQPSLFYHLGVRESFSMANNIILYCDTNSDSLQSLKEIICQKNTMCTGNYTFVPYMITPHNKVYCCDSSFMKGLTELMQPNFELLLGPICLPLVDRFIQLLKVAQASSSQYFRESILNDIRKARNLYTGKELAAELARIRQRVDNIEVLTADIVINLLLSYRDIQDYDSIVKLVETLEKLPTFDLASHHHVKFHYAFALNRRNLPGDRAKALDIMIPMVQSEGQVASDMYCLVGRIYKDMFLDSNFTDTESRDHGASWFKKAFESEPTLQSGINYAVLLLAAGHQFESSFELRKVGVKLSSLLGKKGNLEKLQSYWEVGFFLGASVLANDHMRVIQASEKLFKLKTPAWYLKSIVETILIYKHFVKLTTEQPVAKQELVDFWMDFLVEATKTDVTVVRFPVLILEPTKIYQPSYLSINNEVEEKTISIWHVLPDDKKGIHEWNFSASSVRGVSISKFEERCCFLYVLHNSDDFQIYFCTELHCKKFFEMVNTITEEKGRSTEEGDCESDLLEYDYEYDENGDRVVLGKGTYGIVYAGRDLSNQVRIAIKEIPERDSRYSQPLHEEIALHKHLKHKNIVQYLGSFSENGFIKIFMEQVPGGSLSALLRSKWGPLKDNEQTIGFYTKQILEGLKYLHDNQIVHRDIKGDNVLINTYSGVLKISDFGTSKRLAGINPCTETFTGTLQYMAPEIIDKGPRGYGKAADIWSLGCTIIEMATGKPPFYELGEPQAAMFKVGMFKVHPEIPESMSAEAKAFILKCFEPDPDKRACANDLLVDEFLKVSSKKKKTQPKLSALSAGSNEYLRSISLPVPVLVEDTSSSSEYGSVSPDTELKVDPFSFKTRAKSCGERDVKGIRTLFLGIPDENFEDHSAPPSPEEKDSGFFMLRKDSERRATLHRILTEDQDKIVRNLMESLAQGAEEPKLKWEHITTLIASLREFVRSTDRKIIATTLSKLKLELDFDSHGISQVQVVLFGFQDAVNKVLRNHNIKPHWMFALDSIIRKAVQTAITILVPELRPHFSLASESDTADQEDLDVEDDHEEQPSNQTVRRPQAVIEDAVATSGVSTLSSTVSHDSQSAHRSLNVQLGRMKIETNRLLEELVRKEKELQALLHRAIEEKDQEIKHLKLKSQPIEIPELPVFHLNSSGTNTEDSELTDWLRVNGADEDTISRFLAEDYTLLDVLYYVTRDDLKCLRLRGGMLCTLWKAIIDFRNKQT
Assay: ASK1 Kinase Assay: The ASK1 enzymatic assay was run following Promega ASK1 Kinase Enzyme System (Cat #V3881). The kit provides the protocol, enzymes and all reagents necessary to run an assay. Firstly, the compounds, enzyme, substrate and ATP were diluted in provided assay buffer. The final concentration of the enzyme was 50 nM, substrate (Myelin basic protein) 1 μg/ml and ATP 10 μM. The compound and the enzyme were pre-incubated in a 384 well white solid bottom plate (Greiner, Cat#784075) for 10 minutes. After incubation, the substrate and ATP were added and incubated for further 60 minutes. After 60 minutes, ADP-Glo™ was added and plate was incubated for another 40 minutes. After 40 minutes, Kinase Detection Reagent was added and the plate was incubated for 45 minutes. After 45 minutes, plate was read on Perkin Elmer EnVision using luminescence read (0.5 seconds/well).

O=C(NC1CC1)c1ccc2c(c1)CN(c1cccc(-c3nncn3C3CC3)n1)C2=O
IC50: < 200 nM
